The values that follow come from paper PMC10663837 (iScience, 2023).

The subject of data set [1] is progesterone receptor (PR) refolding by Hsp90 chaperone machine. The data set is described as follows: Progesterone receptor. The class given is biochemical, rabbit.
The next data set relates to Hsp90β/p23. Kind of data set: Co-immunoprecipitation of purified Hsp90β with p23. It counts as binding, human. Conditions: 40 μM EnnA or 5 μM 17-AAG, 5 mM ATP, 30 min 30°C.
The subject of the next data set is Hsp90β/HOP. The data set is described as follows: Co-immunoprecipitation of purified Hsp90β with HOP. It counts as binding, human. The conditions noted are these: 40 μM EnnA or 5 μM 17-AAG, 5 mM ATP, 30 min 30°C.
Data set [2] deals with Hsp90 client proteins, Hsp70, Hsp40, Hsp27. Kind of data set: Western blot of Hsp90 client and heat shock proteins in cells. The class given is cell-based, human and murine. For orientation: Immunoblotting shows a protein as a band on a membrane.
In the next data set the test system is 4T1 tumors. The data set is described as follows: Histology. It counts as in vivo, mouse.
In data set [3] the test system is 4T1 tumor-infiltrating CD8+ T cells. Kind of data set: Immunofluorescence of 4T1 tumor-infiltrating immune cells. Conditions: EnnA 10 mg/kg/48 h, 17-AAG 25 mg/kg/48 h. It counts as in vivo, mouse.
Another data set deals with MDA-MB-231 cells. Kind of data set: Flow cytometry of surface Hsp90, calreticulin, HMGB1, MDA-MB-231 cells. Conditions: 7.5 μM EnnA, 0.5 µM 17-AAG, 24h. It counts as cell-based, human.
The test system of another data set is E0771 transcriptome. The data set is described as follows: Bulk RNA-seq of E0771 cells. It counts as cell-based, murine. Conditions: ∼14%.
For data set [4], the system named is MEFs, MCF10A, E0771, Hs578T cells. Kind of data set: Cytotoxicity to normal versus cancer cells. The conditions noted are these: 24, 48, 72 h; EnnA 1.25-20 µM, 17AAG 0.15-5 µM; absorbance 490 nm. The class given is cell-based, mouse and human.
For data set [5], the system named is cytokine/chemokine mRNA in E0771 cells. The data set is described as follows: RTqPCR of cytokines, chemokines and CX3CR1. Background: Real-time PCR tracks product formation cycle by cycle.
Data set [6] deals with Hsp90β. Conditions: cited from earlier work.
Data set [7] relates to cancer cells. Conditions: cited from earlier work.
The subject of the next data set is E0771 tumors. The data set is described as follows: EnnA combined with CX3CR1 antagonist JMS-17-2, E0771 tumors. The conditions noted are these: JMS-17-2 10 mg/kg i.p. every 48 h alternating with EnnA 10 mg/kg. It counts as in vivo, mouse.
Data set [8] relates to lung breast cancer metastasis. The conditions noted are these: cited from earlier work.
A further data set has as its system PD-L1 and PD-L2. The conditions noted are these: Hsp90 N-terminal inhibitors; cited from earlier work.
Data set [9] deals with cancer cells. The conditions noted are these: cited from earlier work. This is another data set of the same source.
The subject of data set [10] is patient-derived human melanoma cells. Conditions: cited from earlier work.
Data set [11] deals with Hsp90β. Kind of data set: Cellular thermal shift assay. It counts as cell-based, murine. Conditions: E0771 cells, 20 μM, 90 mn.
The target of another data set is Human Hsp90β, purified (human, UniProt P08238 1-724). The data set is described as follows: co-IP.
Human Hsp90β, purified, sequence (P08238 whole entry): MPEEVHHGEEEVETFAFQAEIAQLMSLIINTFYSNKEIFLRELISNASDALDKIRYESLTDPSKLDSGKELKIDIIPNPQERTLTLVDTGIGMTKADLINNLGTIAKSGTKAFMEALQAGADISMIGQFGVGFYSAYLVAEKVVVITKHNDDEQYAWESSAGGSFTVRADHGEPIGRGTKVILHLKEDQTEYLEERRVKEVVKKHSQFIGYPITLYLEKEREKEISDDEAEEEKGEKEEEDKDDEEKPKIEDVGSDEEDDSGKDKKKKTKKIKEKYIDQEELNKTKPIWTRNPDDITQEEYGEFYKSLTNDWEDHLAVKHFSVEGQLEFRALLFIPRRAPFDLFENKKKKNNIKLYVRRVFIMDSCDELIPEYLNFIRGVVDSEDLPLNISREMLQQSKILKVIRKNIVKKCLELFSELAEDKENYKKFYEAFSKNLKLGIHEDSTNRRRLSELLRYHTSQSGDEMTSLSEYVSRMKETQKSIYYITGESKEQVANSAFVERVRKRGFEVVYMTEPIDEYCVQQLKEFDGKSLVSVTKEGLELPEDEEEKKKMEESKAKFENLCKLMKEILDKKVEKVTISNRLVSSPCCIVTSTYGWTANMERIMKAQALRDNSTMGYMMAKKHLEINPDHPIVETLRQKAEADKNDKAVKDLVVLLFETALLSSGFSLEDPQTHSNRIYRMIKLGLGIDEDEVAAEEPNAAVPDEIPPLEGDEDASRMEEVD

`C=CCNC1=C2C[C@@H](C)C[C@H](OC)[C@H](O)[C@@H](C)/C=C(\C)[C@H](OC(N)=O)[C@@H](OC)/C=C\C=C(/C)C(=O)NC(=CC1=O)C2=O` [17-AAG, 17-N-allylamino-demethoxygeldanamycin]: the “accumulation of Hsp70-rich intermediate chaperoning complexes” value in [1] (SDS-PAGE/Coomassie, 1 μM 17-AAG, 10 μM EnnA) is “accumulation of the intermediate chaperoning complexes rich with Hsp70 as observed with 17-AAG”. Besides, in the data set with Hsp90β/p23, the “effect on Hsp90β binding to p23” value is “as with 17-AAG, EnnA disrupts Hsp90β binding to p23”. Further, the “effect on Hsp90β binding to HOP” value with Hsp90β/HOP was “unlike 17-AAG, EnnA does not affect HOP binding to purified Hsp90β”. Besides, the “heat shock response (mRNA and protein of Hsp70, Hsp40, Hsp27)” value in data set [2] (0.5 μM 17-AAG) was “upregulation of mRNA and protein levels of Hsp70, Hsp40, and Hsp27”. The “Hsp90 client protein level” value in data set [2] (EnnA at EC50, 0.5 μM 17-AAG) is listed as “induced Hsp90 client protein degradation”. In addition, the tumor necrosis entry in the data set on 4T1 tumors (4T1, H&E, EnnA 10 mg/kg, 17-AAG 25 mg/kg) was “more necrotic than controls”. The “immune-like cell infiltration of necrotic areas” value with 4T1 tumors (4T1 tumors) is on record as “not as infiltrated as in the case of EnnA-treated animals”. Also, the “CD8+ T cell infiltration” value in data set [3] was “much less so in the 17-AAG-treated group”. Moreover, the “surface exposure of Hsp90, calreticulin, HMGB1 vs 17-AAG” value in the data set on MDA-MB-231 cells is “not induced by 17-AAG”. Further, the “number of genes in common between EnnA and 17-AAG” value in the data set on E0771 transcriptome amounted to 34 genes. Further, the “discrimination between cancer and non-transformed cells” value in data set [4] is “does not discriminate between cancer and non-transformed immortalized cells in cell culture”. Moreover, the “IL10 mRNA” value in data set [5] (E0771, RNA-seq and RTqPCR) is reported as “decreased mRNA expression of anti-inflammatory cytokines such as IL10”. Moreover, the “pro-inflammatory cytokines IL12b, TNFα, IL1β mRNA” value in [5] (RTqPCR) is “limited impact on these inflammatory cytokines”.

Take `CC(C)=CCC[C@]1(C)C=Cc2c(O)c3c(c(CC=C(C)C)c2O1)O[C@]12C(=C[C@@H]4C[C@H]1C(C)(C)O[C@@]2(C/C=C(/C)C(=O)O)C4=O)C3=O` [GBA]: in the data set with Hsp90β [6], the “binding to Hsp90β middle domain” value was “binds selectively to the middle domain of Hsp90β”. For the same molecule, the “mode of cancer cell death” value with cancer cells [7] is “GBA-induced cancer cell paraptosis”.

As to `Cl.O=c1c2cccn2c2ccccc2n1CCCN1CCC(c2ccc(Cl)cc2)CC1` [JMS-17-2, 5-[3-[4-(4-Chlorophenyl)-1-piperidinyl]propyl]pyrrolo[1,2-a]quinoxalin-4(5H)-one hydrochloride], the “effect on EnnA antitumor efficacy” value in the data set on E0771 tumors is “significantly reduced the efficacy of EnnA”. Also, the “lung breast cancer metastasis” value in [8] is on record as “reduce lung breast cancer metastasis”.

Turning to `CCNC(=O)c1noc(-c2cc(C(C)C)c(O)cc2O)c1-c1ccc(CN2CCOCC2)cc1` [Luminespib], the “transcription and cell-surface expression of PD-L1 and PD-L2” value in the data set with PD-L1 and PD-L2 was “significant decrease in the transcription and cancer cell-surface expression of immune checkpoint ligands PD-L1 and PD-L2”.

For `CC(C)NCCCn1c(Sc2cc3c(cc2I)OCO3)nc2c(N)ncnc21` [PU-H71], in the data set on PD-L1 and PD-L2, the “transcription and cell-surface expression of PD-L1 and PD-L2” value is “significant decrease in the transcription and cancer cell-surface expression of immune checkpoint ligands PD-L1 and PD-L2”.

As to `CC1(C)CC(=O)c2c(C(F)(F)F)nn(-c3ccc(C(N)=O)c(N[C@H]4CC[C@H](OC(=O)CN)CC4)c3)c2C1` [SNX-5422], the “transcription and cell-surface expression of PD-L1 and PD-L2” value in the data set on PD-L1 and PD-L2 is “significant decrease in the transcription and cancer cell-surface expression of immune checkpoint ligands PD-L1 and PD-L2”.

Turning to `CC(C)C[C@H](NC(=O)[C@H](Cc1ccccc1)NC(=O)c1cnccn1)B(O)O` [bortezomib], the “Hsp90 exposure at cell surface” value in the data set on cancer cells [9] was “expose Hsp90 at the cell surface”.

Turning to `CC(C)c1cc(-c2n[nH]c(=O)n2-c2ccc3c(ccn3C)c2)c(O)cc1O` [ganetespib], the “transcription and cell-surface expression of PD-L1 and PD-L2” value in the data set on PD-L1 and PD-L2 is “significant decrease in the transcription and cancer cell-surface expression of immune checkpoint ligands PD-L1 and PD-L2”. The “T-cell-mediated killing of melanoma cells” value in data set [10] (autologous T cells in vitro) is listed as “enhances T-cell-mediated killing of patient-derived human melanoma cells”. For the same molecule, the “effect on anti-CTLA4 and anti-PD-1 therapy” value in [10] (in vivo) is “potentiates responses to anti-CTLA4 and anti-PD-1 therapy in vivo”.

For the molecule `COC1=C2C[C@@H](C)C[C@H](OC)[C@H](O)[C@@H](C)/C=C(\C)[C@H](OC(N)=O)[C@@H](OC)/C=C\C=C(/C)C(=O)NC(=CC1=O)C2=O` [geldanamycin], the “transcription and cell-surface expression of PD-L1 and PD-L2” value in the data set with PD-L1 and PD-L2 is “significant decrease in the transcription and cancer cell-surface expression of immune checkpoint ligands PD-L1 and PD-L2”.

As for Enniatin B [AD96], the “inhibition of PR refolding” value in data set [1] (RRL, Figures S1A–S1C, 10 µM drug in screen) is “did not inhibit the PR refolding”. For the same molecule, the “CETSA stabilization of Hsp90” value in the data set on Hsp90β [11] is “did not stabilize Hsp90”.

B1: Human p23, purified (natural protein, UniProt Q15185 1-160, looked up)
chain: MQPASAKWYDRRDYVFIEFCVEDSKDVNVNFEKSKLTFSCLGGSDNFKHLNEIDLFHCIDPNDSKHKRTDRSILCCLRKGESGQSWPRLTKERAKLNWLSVDFNNWKDWEDDSDEDMSNFDRFSEMMNNMGGDEDVDLPEVDGADDDSQDSDDEKMPDLE
On to B1, for which, in the data set with Human Hsp90β, purified, the binding result is “binds”.
